Residues, ends and D or L forms follow the SMILES beside them.
Key:
[1] = test system: Nucleic Acid; assay: DNA cleaving activity was determined; +/- indicates marginally detectable cleavage activity; format: functional
[2] = test system: Nucleic Acid; assay: DNA cleaving activity was determined; +++++ indicates 100% of Ser-His cleavage activity; format: functional

| SMILES | Activity [1] | Activity [2] |
| --- | --- | --- |
| C[C@@H](O)[C@H](N)C(=O)N[C@@H](Cc1c[nH]cn1)C(=O)O (H-Thr-His-OH) | +/- |  |
| N[C@@H](CO)C(=O)N[C@@H](Cc1c[nH]cn1)C(=O)O (H-Ser-His-OH) |  | ++++ |

Reference: ChEMBL document CHEMBL1146799, “Molecular modeling on DNA cleavage activity of seryl-histidine and related dipeptide” (Bioorg Med Chem Lett, 2004)
